# Results as given in patent publication US4279915A, “Method of treatment using new leurosine derivatives” (priority 1973, dated 1981).
# Assays:
# [1] = acute toxicity in Swiss mice; format: in vivo, mouse; details: mouse, in vivo, Swiss mice
# Text: (§1) ACUTE TOXICITY IN SWISS MICE
# (§2) Table III lists the comparative toxicological data concerning Vincristine, Vinblastine and F-leurosine. The new analogue is approximately 7 times less toxic than Vincristine and 4 times less toxic than Vinblastine in acute rodent experiments.
# Swiss mice = assay: acute toxicity in Swiss mice; format: in vivo, mouse
# Text: as §1, §2
# [2] = tested on: Ehrlich ascites carcinoma; assay: antitumor effect on Ehrlich ascites carcinoma; format: in vivo, mice
# Text: This compound provides complete recovery or a 300 percent extension of life span in 50 to 70 percent of the cases, in tests on mice inoculated with Ehrlich ascites carcinoma or NK/Ly lymphoma.
# (§3) EFFECT OF F-LEUROSINE ON ASCITIC TUMORS
# L 1210 leukemia = assay: effect on L 1210 i.p. leukemia; format: in vivo, BDF1 mice
# Text: (§4) The treatment extends the life span of animals suffering from L-1210 lymphoid leukemia, s37 ascites sarcoma or Yoshida ascites sarcoma by about 150 to 250 percent.
# L 1210 I.P. LEUKEMIA ON BDF1 MICE
# S 37 ascites sarcoma = assay: antitumor effect on S 37 ascites sarcoma; format: in vivo
# Text: as §4, §3
# VX-2 rabbit epitheloma = assay: growth inhibition of VX-2 rabbit epitheloma; format: in vivo
# rhabdomyo-sarcoma = assay: growth inhibition of induced and transplanted rhabdomyo-sarcoma; format: in vivo
# [3] = tolerability and therapeutical range in animal tests; format: in vivo
# Procedure: A dose of 0.3 to 5.0 mg./kg. of body weight can also be used in human therapy, although the dosage can be as low as 0.01 mg./kg. daily.
# [4] = tested on: haemoblastoses and leukemia; assay: clinical treatment of patients with haemoblastoses and leukemia (Example A); format: in vivo, human
# Procedure: Based on the experiences obtained on 17 patients during the first half-year, further 8 patients with haemoblastoses and leukemia were given treatment. The patients were given daily 0.05 mg/kg single doses. The clinical examinations during the second half-year were performed with the same daily dose, but with different total doses. The smallest total amount meant 3, the highest 12 subsequent doses. The dosage was tested both in forms of sequential and intermittent treatment.
# 3 patients out of 8 received the drug sequentially, which meant single doses on subsequent days, the remaining 5 patients were given intermittent treatment.
# The intermittent treatment was made in two ways: 1. Single doses through 3 days, followed by 5 days interval as total up to an amount of 12 times 0.05 mg/kg. 2. Single dose on the first day, followed by 3 days interval, up to a total amount of 12 times 0.05 mg/kg.
# The route of administration was always intravenous, 1 mg active substance was dissolved in 10 ml physiological saline.
# leukaemias = assay: effect of F-leurosine on leukaemias in patients (Table I); format: in vivo, human; details: for haematological effect: schedule C
# lymphomas = assay: effect of F-leurosine on lymphomas in patients (Table II); format: in vivo, human
# Text: Both of Hodgkin patients belonged to the poor risk category.
# EFFECT OF F-LEUROSINE ON LYMPHOMAS
# leukemia = assay: Phase I trial, escalation and evaluation period; format: in vivo, human; details: up to 0.05 mg/kg/day i.v. six consecutive days, escalation period
# Procedure: Fourteen patients were treated. The patient selection met the following criteria: (a) all types of leukemia, (b) all patients previously treated without success, (e) no X-ray or chemotherapy was administered four weeks prior to therapy, (d) at least eight weeks follow-up. In the escalation period 0.01 mg/kg/day i.v. was given five consecutive days as initial dose.
# DOSAGE OF F-LEUROSINE IN PHASE I TRIAL
# In addition, eight patients were added to the group treated on the basis of this schedule.
# [5] = 4 × 0.6 mg/kg i.p. each other day
# [6] = 8 × 2.5 mg/kg i.p. 48 hr interval
# [7] = 8 × 2.5 mg/kg i.p. 72 hr interval
# [8] = 8 × 5.0 mg/kg i.p. 48 hr interval
# [9] = 8 × 5.0 mg/kg i.p. 72 hr interval
# [10] = 8 × 5.0 mg/kg i.p. 96 hr interval
# [11] = 8 × 7.5 mg/kg i.p. 72 hr interval
# [12] = 8 × 7.5 mg/kg i.p. 96 hr interval
# [13] = 8 × 10.0 mg/kg i.p. 48 hr interval
# [14] = 8 × 10.0 mg/kg i.p. 72 hr interval
# [15] = 8 × 10.0 mg/kg i.p. 96 hr interval
# [16] = 0.05 mg/kg daily dose, applied 3-12 times
structure (smiles),measurement,setting,value
CCC12CN3CCc4c([nH]c5ccccc45)[C@@](C(=O)OC)(c4cc5c(cc4OC)N(C=O)[C@H]4[C@@](O)(C(=O)OC)[C@H](OC(C)=O)[C@]6(CC)C=CCN7CC[C@]54[C@@H]76)C[C@@H](C3)C1O2 (some centres unmarked) [N-formyl-leurosine],LD50,"[1]; ip, 1 x i.p.",28.8 mg/kg
same,LD50,"[1]; iv, 1 x i.v.",32.5 mg/kg
same,times less toxic than Vinblastine,Swiss mice; acute rodent experiments,~4 times
same,times less toxic than Vincristine,Swiss mice; acute rodent experiments,approximately 7 times
same,signs of neurotoxicity,"Swiss mice; even subluthal doses, experimental animals",did not show any signs of neurotoxicity
same,toxicity relative to vinblastine,"Swiss mice; i.p., on mice (text b8)",about five times less toxic than vinblastine
same,toxicity relative to vincristine,"Swiss mice; i.p., on mice (text b8)",about ten times less toxic than vincristine
same,extension of life span,[2],300%
same,Survival,[2]; [5],288
same,Tumor free,[2]; [5],7/10
same,Survival,[2]; 7 × 3.0 mg/kg i.p. daily,244
same,Tumor free,[2]; 7 × 3.0 mg/kg i.p. daily,3/10
same,Survival,[2]; 24 × 0.15 mg/kg i.p. daily,118
same,Tumor free,[2]; 24 × 0.15 mg/kg i.p. daily,3/10
same,Mean survival,L 1210 leukemia; 8 × 1.25 mg/kg i.p. daily,27.7 days
same,Survival,L 1210 leukemia; 8 × 1.25 mg/kg i.p. daily,131
same,Mean survival,L 1210 leukemia; [6],22.4 days
same,Survival,L 1210 leukemia; [6],137
same,Mean survival,L 1210 leukemia; [7],12.0 days
same,Survival,L 1210 leukemia; [7],48
same,Mean survival,L 1210 leukemia; 8 × 2.5 mg/kg i.p. daily,25.0 days
same,Survival,L 1210 leukemia; 8 × 2.5 mg/kg i.p. daily,127
same,Mean survival,L 1210 leukemia; [8],24.0 days
same,Survival,L 1210 leukemia; [8],126
same,Mean survival,L 1210 leukemia; [9],22.1 days
same,Survival,L 1210 leukemia; [9],123
same,Mean survival,L 1210 leukemia; [10],10.8 days
same,Survival,L 1210 leukemia; [10],35
same,Mean survival,L 1210 leukemia; 8 × 5.0 mg/kg i.p. daily,23.0 days
same,Survival,L 1210 leukemia; 8 × 5.0 mg/kg i.p. daily,109
same,Mean survival,L 1210 leukemia; [11],20.2 days
same,Survival,L 1210 leukemia; [11],117
same,Mean survival,L 1210 leukemia; [12],19.2 days
same,Survival,L 1210 leukemia; [12],95
same,Mean survival,L 1210 leukemia; 8 × 7.5 mg/kg i.p. daily,19.5 days
same,toxicity mark in Survival column,L 1210 leukemia; 8 × 7.5 mg/kg i.p. daily,tox
same,Survival,"L 1210 leukemia; 8 × 7.5 mg/kg i.p. daily, tox",56
same,Mean survival,L 1210 leukemia; [13],21.7 days
same,toxicity mark in Survival column,L 1210 leukemia; [13],tox
same,Survival,"L 1210 leukemia; 8 × 10.0 mg/kg i.p. 48 hr interval, tox",60
same,Mean survival,L 1210 leukemia; [14],22.3 days
same,Survival,L 1210 leukemia; [14],145
same,Mean survival,L 1210 leukemia; [15],23.6 days
same,Survival,L 1210 leukemia; [15],136
same,potency of small daily doses vs high doses twice weekly,L 1210 leukemia; BDF1 mice,equally potent
same,sensitivity of L-1210 leukemia to the treatment,L 1210 leukemia; BDF1 mice,sensitive to the treatment
same,extension of life span,"L 1210 leukemia; L-1210 lymphoid leukemia, about",150-250%
same,Tumor free,S 37 ascites sarcoma; 4 × 2.5 mg/kg i.p. daily,4/6
same,Tumor inhibition,S 37 ascites sarcoma; 4 × 2.5 mg/kg i.p. daily,100
same,Survival,S 37 ascites sarcoma; 8 × 1.0 mg/kg i.p. daily,268
same,Tumor free,S 37 ascites sarcoma; 8 × 1.0 mg/kg i.p. daily,1/6
same,extension of life span,"S 37 ascites sarcoma; s37 ascites sarcoma, about",150-250%
same,growth inhibition,VX-2 rabbit epitheloma,remarkable growth inhibition
same,growth inhibition,rhabdomyo-sarcoma,remarkable growth inhibition
same,side-effects,"[3]; 0.3 to 5.0 mg./kg. for prolonged periods, animals",without causing side-effects characteristic of and unavoidable with the known vinca-alkaloids
same,therapeutical range compared with vincristine,[3]; animal tests,somewhat similar to that of vincristine
same,therapeutical range compared with vinleurosine,[3]; animal tests,about four times broader than that of vinleurosine
same,side effects,[4]; [16],does not produce any side effects
same,untoward neurological symptoms,[4]; [16],No untoward symptoms of a neurological respect appear
same,objective improvement,"[4]; 0.05 mg/kg daily i.v., complete treatments",all complete treatments were followed by objective improvement
same,Complete remission,"[4]; 0.05 mg/kg daily i.v., leukemic patients",both leukemic patients had complete remission
same,effectiveness in acute leukemia and lymphomas,"[4]; phase I examinations, acute leukemia (myeloblast and lymphoblast type) and lymphomas","equally effective in acute leukemia (myeloblast and lymphoblast type), and in lymphomas"
same,cytostatic effect,[4]; summary,very effective cytostatic
same,clinical improvement parallel with the haematological one,leukaemias; ALL and AML patients,observed only in the case of the ALL patient
same,duration of complete haematological remission,leukaemias; ALL patient,2 months
same,outcome after treatment,leukaemias; AML patient,died one month after the end of the treatment
same,time to relapse after finishing treatment,"leukaemias; AML patient, relapse untreatable because of serious thrombopenia and bleeding",14 days
same,splenomegaly,"leukaemias; CLL, first case",splenomegaly diminished
same,enlargement of pathological lymph nodes,"leukaemias; CLL, second case (T. B.)",became less pronounced
same,lymph nodes and spleen volume,"leukaemias; CLL, third case",both the lymph nodes and the spleen increased in volume
same,clinical improvement,leukaemias; chronic lymphocytic leukaemia,some clinical improvement was achieved in all the 3 CLL patients
same,haematological remission,leukaemias; chronic lymphocytic leukaemia,no haematological remission could be induced
same,complete haematological remission,"leukaemias; four cases of acute leukaemia, one ALL, one AML",Complete haematological remission was achieved in two cases
same,haematological effect,"leukaemias; patient seven, AMoL",IR>50%
same,haematological effect,"leukaemias; patient six, AUL",IR>50%
same,"X-ray picture of the chest, atelectasia in lower region of right lung","lymphomas; Hodgkin patient four, before vs after treatment",undoubted improvement
same,response,"lymphomas; lymphosarcoma patient eight, poor risk",non-responding
same,palpable lymph nodes,"lymphomas; lymphosarcoma patient five, after second course",all but one of the palpable lymph nodes disappeared
same,Westergren value after treatment,"lymphomas; lymphosarcoma patient five, 75 mm/hour before the treatment",12 mm/h
same,remission,lymphomas; lymphosarcoma patient three,moderate remission
same,change in mediastinal pathologic lymph nodes' size and intensity,lymphomas; lymphosarcoma patient two,"not spectacular, but definite"
same,palpable lymph nodes,lymphomas; lymphosarcoma patient two,The majority of their palpable lymph nodes disappeared
same,effect,"lymphomas; patient five, course I, Lysc., schedule A",IR>50%
same,effect,"lymphomas; patient five, course II, Lysc., schedule B",IR<50%
same,effect,"lymphomas; patient nine, Hodgkin SC., schedule C",IR<50%
same,effect,"lymphomas; patient one, Rsc., schedule C",IR<50%
same,effect,"lymphomas; patient three, Lysc., schedule A",IR<50%
same,effect,"lymphomas; patient two, Lysc., schedule C",IR>50%
same,sensitivity to treatment,lymphomas; poor risk Hodgkin patient four,proved to be sensitive
same,improvement after therapy,"lymphomas; two reticulosarcoma patients, some lymph nodes diminished, softer, more mobile",one showed a moderate improvement after therapy
same,antitumor activity,leukemia,striking antitumor activity
same,signs of toxicity,leukemia,without signs of toxicity
